Laboratory results from US10611778B2, “Fused bicyclic inhibitors of menin-MLL interaction” (Janssen Pharmaceutica NV, priority 2016, dated 2020).
pIC50: −log10 of the molar value.

Key:
[1] = biological target: T1, Menin/MLL (terbium chelate-labeled menin, FITC-MBM1 peptide) (Homo sapiens, UniProt O00255, T541A); experiment: Menin/MLL homogenous time-resolved fluorescence (HTRF) assay; assay type: binding; conditions: averaged values over all measurements; read-out: Menin HTRF assay (IC50)
T1 construct: Menin (a.a. 1-610-6×his tag) was labeled with terbium cryptate as follows
T1 sequence (O00255 with tags, fused parts or gaps T541A): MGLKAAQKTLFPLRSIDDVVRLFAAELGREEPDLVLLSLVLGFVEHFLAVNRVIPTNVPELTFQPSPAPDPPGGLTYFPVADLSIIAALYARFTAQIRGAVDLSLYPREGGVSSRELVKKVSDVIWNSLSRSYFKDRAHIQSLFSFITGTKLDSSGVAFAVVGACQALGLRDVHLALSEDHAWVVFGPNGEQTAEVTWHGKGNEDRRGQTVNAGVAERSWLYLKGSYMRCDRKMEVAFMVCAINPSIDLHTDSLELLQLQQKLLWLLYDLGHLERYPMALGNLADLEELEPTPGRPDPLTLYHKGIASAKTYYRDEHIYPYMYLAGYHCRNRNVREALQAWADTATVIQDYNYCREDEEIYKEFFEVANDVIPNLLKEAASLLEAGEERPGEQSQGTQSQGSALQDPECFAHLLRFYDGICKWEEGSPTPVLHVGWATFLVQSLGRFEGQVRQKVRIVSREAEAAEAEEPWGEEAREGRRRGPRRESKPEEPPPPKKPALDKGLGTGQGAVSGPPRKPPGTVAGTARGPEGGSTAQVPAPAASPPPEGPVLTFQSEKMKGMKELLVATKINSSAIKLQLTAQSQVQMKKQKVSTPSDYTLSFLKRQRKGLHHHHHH
Description: 3) Menin/MLL Homogenous Time-Resolved Fluorescence (HTRF) Assay
To an untreated, white 384-well microtiter plate was added 40 nL 200× test compound in DMSO and 4 μL 2× terbium chelate-labeled menin (vide infra for preparation) in assay buffer (40 mM Tris-HCl, pH 7.5, 50 mM NaCl, 1 mM DTT and 0.05% Pluronic F-127). After incubation of test compound and terbium chelate-labeled menin for 5 min at ambient temperature, 4 μL 2×FITC-MBM1 peptide (FITC-β-alanine-SARWRFPARPGT-NH2) in assay buffer was added, the microtiter plate centrifuged at 1000 rpm for 1 min and the assay mixtures incubated for 15 min at ambient temperature. The relative amount of menin⋅FITC-MBM1 complex present in an assay mixture is determined by measuring the homogenous time-resolved fluorescence (HTRF) of the terbium/FITC donor/acceptor fluorophore pair using a BMG Pherastar plate reader (ex. 337 nm/terbium em. 490 nm/FITC em. 520 nm) at ambient temperature. The degree of fluorescence resonance energy transfer (the HTRF value) is expressed as the ratio of the fluorescence emission intensities of the FITC and terbium fluorophores (F^em 520 nm/F^em 490 nm). The final concentrations of reagents in the binding assay are 100 pM terbium chelate-labeled menin, 75 nM FITC-MBM1 peptide and 0.5% DMSO in assay buffer. Dose-response titrations of test compounds are conducted using an 11 point, three-fold serial dilution scheme, starting at 31 μM.
Compound potencies were determined by first calculating % inhibition at each compound concentration according to equation 1: % inhibition=((HC−LC)−(HTRF^compound−LC))/(HC−LC))*100 (Eqn 1)
(§1) Where LC and HC are the HTRF values of the assay in the presence or absence of a saturating concentration of a compound that competes with FITC-MBM1 for binding to menin, and HTRF^compound is the measured HTRF value in the presence of the test compound. HC and LC HTRF values represent an average of at least 16 replicates per plate.
(§2) Where Bottom and Top are the lower and upper asymptotes of the dose-response curve, respectively, IC50 is the concentration of compound that yields 50% inhibition of signal and h is the Hill coefficient.
Preparation of Terbium cryptate labeling of Menin: Menin (a.a. 1-610-6×his tag) was labeled with terbium cryptate as follows. 2 mg of Menin was buffer exchanged into 1× phosphate buffered saline. 16 uM Menin was incubated with 4-fold molar excess NHS-terbium cryptate (Cisbio Bioassays, Bedford, Mass.) for 2 hours at room temperature. The labeled protein was purified away from free label by running the reaction over a Superdex 200 Increase 10/300 GL column at 0.75 ml/min. Peak fractions were collected, aliquoted and frozen at −80° C.

[2] = test system: MOLM14; experiment: Proliferation assay (spheroid assay) MOLM14; assay type: cell-based, human; conditions: Homo sapiens, MOLM-14, MOLM14; averaged values over all measurements; read-out: Spheroid assay MOLM14 (IC50)
Description: (§3) The anti-proliferative effect of menin/MLL protein/protein interaction inhibitor test compounds was assessed in human leukemia cell lines. The cell lines MV-4-11 and MOLM14 harbor MLL translocations and express the MLL fusion proteins MLL-AF4 and MLL-AF9, respectively, as well as the wildtype protein from the second allele. […] K562 and KG1 were used as a control cell lines containing two MLL wildtype alleles in order to exclude compounds that display general cytotoxic effects.
(§4) MV-4-11 and MOLM14 were cultured in RPMI-1640 (Sigma Aldrich) supplemented with 10% fetal bovine serum (HyClone), 2 mM L-glutamine (Sigma Aldrich) and 50 μg/ml gentamycin (Gibco). K562 were propagated in RPMI-1640 (Sigma Aldrich) supplemented with 20% fetal bovine serum (HyClone), 2 mM L-glutamine (Sigma Aldrich) and 50 μg/ml gentamycin (Gibco). KG1 were cultured in Iscove's MDM (Gibco) supplemented with 20% fetal bovine serum (HyClone), 2 mM L-glutamine (Sigma Aldrich) and 50 μg/ml gentamycin (Gibco).
(§5) In order to assess the anti-proliferative effects, 1,500 MV-4-11, 300 MOLM14, 750 K562 or 1,300 KG1 cells were seeded in 200 μl media per well in 96-well round bottom, ultra-low attachment plates (Costar, catalogue number 7007). Cell seeding numbers were chosen based on growth curves to ensure linear growth throughout the experiment. Test compounds were added at different concentrations and the DMSO content was normalized to 0.3%. Cells were incubated for 8 d at 37° C. and 5% CO2. Spheroid like growth was monitored in real-time by live-cell imaging (IncuCyteZOOM, Essenbio, 4× objective) acquiring one image every four hours for 8 d. Confluence (%) as a measure of spheroid size was determined using an integrated analysis tool.
(§6) In order to determine the cumulative effect of the test compounds over time, the area under the curve (AUC) in a plot of confluence against time was calculated. Confluence at the beginning of the experiment (t=0) was used as baseline for the AUC calculation.
(§7) Absolute IC50 values were calculated according to the following procedure: % Control=(AUC sample/AUC control)*100
(§8) AUC control=mean AUC of control values (cells without compound/DMSO as vehicle control)
(§9) A non-linear curve fit was applied using the least squares (ordinary) fit method to the plot of % control versus compound concentration. Based on this, the absolute IC50 value (half maximal inhibitory concentration of the test compound causing an anti-proliferative effect of 50% relative to the vehicle control) was calculated.

[3] = test system: MV-4-11; experiment: Proliferation assay (spheroid assay) MV-4-11; assay type: cell-based, human; conditions: Homo sapiens, MV4-11, MV-4-11; averaged values over all measurements; read-out: Spheroid assay MV-4-11 (IC50)
Description: as §3, §4, §5, §6, §7, §8, §9

[4] = biological target: T2, Menin/MLL (menin, FITC-MBM1 peptide) (Homo sapiens, UniProt O00255, T541A); experiment: Menin/MLL fluorescence polarization (FP) assay; assay type: binding; conditions: averaged values over all measurements; read-out: Menin FP assay (IC50)
T2 construct: 6xHis (C)
T2 sequence (O00255 with tags, fused parts or gaps T541A): T1 sequence (O00255 with tags, fused parts or gaps T541A)
Description: Pharmacological Part 1) Menin/MLL Fluorescence Polarization Assay
To a non-surface binding, black 384-well microtiter plate was added 50 nL 160× test compound in DMSO and 4 μL 2× menin in assay buffer (40 mM Tris-HCl, pH 7.5, 50 mM NaCl, 1 mM DTT and 0.001% Tween 20). After incubation of test compound and menin for 10 min at ambient temperature, 4 μL 2×FITC-MBM1 peptide (FITC-β-alanine-SARWRFPARPGT-NH2) in assay buffer was added, the microtiter plate centrifuged at 1000 rpm for 1 min and the assay mixtures incubated for 15 min at ambient temperature. The relative amount of menin: FITC-MBM1 complex present in an assay mixture is determined by measuring the fluorescence polarization (FP) of the FITC label with a BMG Pherastar plate reader (ex. 485 nm/em. 520 nm) at ambient temperature. The final concentrations of reagents in the binding assay are 100 nM menin, 5 nM FITC-MBM1 peptide and 0.625% DMSO in assay buffer. Dose-response titrations of test compounds are conducted using an 11 point, three-fold serial dilution scheme, starting at 31 μM.
Compound potencies were determined by first calculating % inhibition at each compound concentration according to equation 1: % inhibition=((HC−LC)−(FP^compound−LC))/(HC−LC))*100 (Eqn 1)
as §1, with “FP” for “HTRF”, “FP^compound” for “HTRF^compound”
as §2

pIC50 [1]	pIC50 [2]	pIC50 [3]	pIC50 [4]	Structure (SMILES)
7.21	5.42	5.70	7.05	FC(F)(F)Cc1cc2c(N3CC[C@@H]4[C@@H](CCN4Cc4ccccc4)C3)ncnc2s1 (single isomer, unassigned) [Compound 3]
–	< 4.82	4.86	6.28	Cn1cc(CN2CC[C@@H]3CN(c4ncnc5sc(CC(F)(F)F)cc45)CC[C@@H]32)cn1 (single isomer, unassigned) [Compound 13]
–	–	–	5.95	Cn1ccc(CN2CC[C@@H]3CN(c4ncnc5sc(CC(F)(F)F)cc45)CC[C@@H]32)n1 (single isomer, unassigned) [Compound 14]
–	–	–	5.73	O=S(=O)(c1ccccc1)N1CC[C@H]2CN(c3ncnc4sc(CC(F)(F)F)cc34)CC[C@H]21 (single isomer, unassigned) [Compound 17]
5.76	–	–	5.93	CC(C)CN1CC[C@@H]2CN(c3ncnc4sc(CC(F)(F)F)cc34)C[C@@H]21 (single isomer, unassigned) [Compound 28A]
5.60	–	–	5.86	CC(C)CN1CC[C@H]2CN(c3ncnc4sc(CC(F)(F)F)cc34)C[C@H]21 (single isomer, unassigned) [Compound 28B]
7.96	–	6.66	–	Nc1ccc(CN2CC[C@@H]3CN(c4ncnc5sc(CC(F)(F)F)cc45)C[C@@H]3C2)cn1 (single isomer, unassigned) [Compound 105]
8.00	–	6.72	–	CNc1ccc(CN2CC[C@@H]3CN(c4ncnc5sc(CC(F)(F)F)cc45)C[C@@H]3C2)cn1 (single isomer, unassigned) [Compound 106]
7.64	–	6.47	–	CNc1cc(CN2CC[C@@H]3CN(c4ncnc5sc(CC(F)(F)F)cc45)C[C@@H]3C2)ccn1 (single isomer, unassigned) [Compound 107]
7.64	–	6.06	–	O=C(c1ccncc1)N1CCC(CN2CC[C@@H]3CN(c4ncnc5sc(CC(F)(F)F)cc45)C[C@@H]3C2)CC1 (single isomer, unassigned) [Compound 108]
–	–	–	5.82	O=S(=O)(c1ccccc1)N1CC[C@@H]2CN(c3ncnc4sc(CC(F)(F)F)cc34)CC[C@@H]21 [Compound 16]
5.34	–	–	5.75	Cn1ccnc1CN1CCC2CN(c3ncnc4sc(CC(F)(F)F)cc34)CCC21 (centres unmarked) [Compound 19]
5.67	–	–	5.75	Cn1cc(CN2CCCC3C2CCN3c2ncnc3sc(CC(F)(F)F)cc23)cn1 (centres unmarked) [Compound 21]
–	–	–	5.62	FC(F)(F)Cc1cc2c(N3CCC4C(CCN4Cc4ncc[nH]4)C3)ncnc2s1 (centres unmarked) [Compound 22]
7.27	5.25	5.33	–	NCCn1cc(CN2CCC3CN(c4ncnc5sc(CC(F)(F)F)cc45)CCC32)cn1 (centres unmarked) [Compound 26]
5.00	–	–	5.34	Cn1cc(CN2CC[C@@H]3CN(c4ncnc5sc(CC(F)(F)F)cc45)C[C@@H]32)cn1 [Compound 27A]
5.05	–	–	5.44	Cn1cc(CN2CC[C@H]3CN(c4ncnc5sc(CC(F)(F)F)cc45)C[C@H]32)cn1 [Compound 27B]
5.56	–	–	5.81	FC(F)(F)Cc1cc2c(N3C[C@@H]4CN(Cc5ccccc5)[C@@H]4C3)ncnc2s1 [Compound 32]
5.68	–	–	5.92	FC(F)(F)Cc1cc2c(N3C[C@H]4CN(Cc5ccccc5)[C@H]4C3)ncnc2s1 [Compound 33]
5.70	–	–	6.11	Cn1cc(CN2CC3CCN(c4ncnc5sc(CC(F)(F)F)cc45)CC3C2)cn1 (centres unmarked) [Compound 34]
6.04	–	–	5.99	FC(F)(F)Cc1cc2c(N3CCC4C(CCN4Cc4cc[nH]n4)C3)ncnc2s1 (centres unmarked) [Compound 84]

Structure (SMILES)	pIC50 [1]	pIC50 [2]	pIC50 [3]	pIC50 [4]
[CH3][Ge]([CH3])([CH3])[CH2]N1CCC2CN(c3ncnc4sc(CC(F)(F)F)cc34)CCC21 (centres unmarked) [Compound 15]	6.92	–	–	6.89
